Test results: patent publication US9439430B2, “Method of controlling resistant harmful plants” (priority 2012, dated 2016)

Tests used:
EPHHL [1] = assay: Greenhouse test, post-emergence (PO) application, foliar effect; type: in vivo, Euphorbia heterophylla; conditions: (A) 50, (B) 20, mixture 50 + 20 g of AS/ha, 3 weeks after application
From the text: (§1) The 1:1 mixture of the two soil types was used specifically for cultivating small-seeded dicotyledonous weed since the standard field soil on its own tends to silt up, which may have an adverse effect on the emergence of small-seeded weeds. The resistances mentioned in the tables were confirmed beforehand in standard monitoring experiments. Nevertheless, the origins examined may have additional, hitherto unconfirmed resistances to various mechanisms of action.
(§2) The pots were then cultivated in a greenhouse (12-16 h light, temperature day 20-22° C., night 15-18° C.) until the time of application. The pots were treated at various BBCH stages of the seeds/plants on a laboratory track sprayer with spray liquors comprising the compositions according to the invention, mixtures of the prior art or the individual components. Application of the active compounds or active compound combinations and wetting agents formulated as WG, WP, EC or otherwise was carried out at the appropriate growth stages of the plants. The amount of water used for spray application was 100-600 l/ha. After the treatment, the plants were returned to the greenhouses and fertilized and watered as required. The pots were cultivated in a greenhouse (12-16 h light, temperature day 20-22° C., night 15-18° C.).
(§3) 3 weeks after the application, the foliar effect was evaluated on a scale of 0-100%:
(§4) 0%=no noticeable effect compared to untreated plants
(§5) 100%=full effect compared to untreated plants
(§6) The following abbreviations were used: • BBCH the BBCH code provides information about the morphological development stage of a plant. Officially, the abbreviation denotes the Biologische Bundesanstalt, Bundessortenamt and CHemische Industrie [Federal Biological Institute for Agriculture and Forestry, Federal Office for Crop Plant Varieties, Chemical Industry]. The range of BBCH 00-10 denotes the germination stages of the seeds until surface penetration. The range of BBCH 11-25 denotes the leaf development stages until stocking (corresponds to the number of tillers or side-shoots). • PE pre-emergence soil application; BBCH of the seeds/plants 00-10 • PO post-emergence application on the green parts of the plants; BBCH of the plants 11-25 • IU soil loamy silt—standard field soil • l/ha liters per hectare • S sensitive—the weed populations are sensitive to the active compounds tested • TSR target-site resistance. The weed populations comprise biotypes having a site-of-action-specific resistance, i.e. the binding site at the site of action is modified as a result of natural mutations in the gene sequence so that the active compounds are no longer able to bind, or bind in an unsatisfactory manner, and are therefore no longer able to act. • NTR non-target-site herbicide resistance; this is differentiated, inter alia, into EMR (Enhanced Metabolic Resistance) (the weed populations comprise biotypes having metabolic resistance, i.e. the plants are capable of metabolizing the active compounds more quickly via enzyme complexes, i.e. the active compounds are degraded more quickly in the plant), into reduced penetration into the plant, reduced translocation in the plant, accelerated excretion. […]

APESV [2] = assay: as above; type: in vivo, Apera spica-venti; conditions: (A) 50, (B) 20, mixture 50 + 20 g of AS/ha, 3 weeks after application
From the text: as §1, §2, §3, §4, §5, §6

LOLSS [3] = assay: as above; type: in vivo, Lolium spp.; conditions: (A) 50, (B) 20, mixture 50 + 20 g of AS/ha, 3 weeks after application
From the text: as §1, §2, §3, §4, §5, §6

AMATA = assay: Greenhouse test, pre-emergence (PE) soil application; type: in vivo, Amaranthus rudis; design: key: % effect: 0 = no effect, 100 = full effect vs untreated
From the text: as §1, §2, §3, §4, §5, §6

EPHHL [4] = assay: as above; type: in vivo, Euphorbia heterophylla; design: key: % effect: 0 = no effect, 100 = full effect vs untreated
From the text: as §1, §2, §3, §4, §5, §6

APESV [5] = assay: as above; type: in vivo, Apera spica-venti; design: key: % effect: 0 = no effect, 100 = full effect vs untreated
From the text: as §1, §2, §3, §4, §5, §6

LOLSS [6] = assay: as above; type: in vivo, Lolium spp.; design: key: % effect: 0 = no effect, 100 = full effect vs untreated plants
From the text: as §1, §2, §3, §4, §5, §6

ERIBO = assay: as above; type: in vivo, Erigeron bonariensis; design: key: % effect: 0 = no effect, 100 = full effect vs untreated
From the text: as §1, §2, §3, §4, §5, §6

[7] = system: TTTTT (all resistant and sensitive biotypes); assay: Greenhouse test, PE application, mean over all resistant and sensitive biotypes; type: in vivo; conditions: (A) 12.5, (B) 20, mixture 12.5 + 20 g of AS/ha; for TTTTT resistant mean (effect): mean of resistant biotypes (n = 16); for TTTTT sensitive mean (effect): mean of sensitive biotypes (n = 11)
From the text: as §1, §2, §3, §4, §5, §6

[8] = EPHHL resistant - group B (TSR) and G (NTR)
[9] = EPHHL resistant - group B (TSR)
[10] = APESV resistant - group B (TSR, NTR) and K1/3 (NA)
[11] = LOLSS resistant - group G (NTR)
[12] = LOLSS resistant group A (TSR, NTR), B (NTR) and C2 (NA)
[13] = LOLSS resistant group A (TSR, NTR), B (TSR, NTR) and C2 (NA)
[14] = group (B) compound alone, 20 g of AS/ha

Compound | foliar effect (EPHHL [1]; [8]) [%] | foliar effect (EPHHL [1]; [9]) [%] | foliar effect (EPHHL [1]; EPHHL sensitive) [%] | foliar effect (APESV [2]; [10]) [%] | foliar effect (APESV [2]; APESV sensitive) [%] | foliar effect (LOLSS [3]; [11]) [%] | foliar effect (LOLSS [3]; [12]) [%] | foliar effect (LOLSS [3]; [13]) [%] | foliar effect (LOLSS [3]; LOLSS sensitive) [%] | effect on AMATA sensitive (AMATA; [14]) | effect on EPHHL resistant - group B (TSR) (EPHHL [4]; [14]) | effect on EPHHL resistant - group B (TSR) and G (NTR) (EPHHL [4]; [14]) | effect on EPHHL sensitive (EPHHL [4]; [14]) | effect on APESV resistant - group B (TSR, NTR) and K1/3 (NA) (APESV [5]; [14]) | effect on APESV sensitive (APESV [5]; [14]) | effect on LOLSS resistant - group G (NTR) (LOLSS [6]; [14]) | effect on LOLSS resistant group A (TSR, NTR), B (NTR) and C2 (NA) (LOLSS [6]; [14]) | effect on LOLSS resistant group A (TSR, NTR), B (TSR, NTR) and C2 (NA) (LOLSS [6]; [14]) | TTTTT resistant mean (effect) [7] [%] | TTTTT sensitive mean (effect) [7] [%] | other results
COc1cc(OC)nc(NC(=O)NS(=O)(=O)c2ncccc2C(F)(F)F)n1 [(B1), flazasulfuron] | 40 | 30 | 80 | 30 | 100 | 60 | 60 | 30 | 95 | 70 | 0 | 20 | 40 | 40 | 85 | 80 | 70 | 70 | 32 | 75 | effect on LOLSS sensitive (LOLSS [6]; [14]): 70; effect on ERIBO resistant - group B (NA) and G (NTR) (ERIBO; [14]): 0; effect on ERIBO sensitive (ERIBO; [14]): 70
Cc1ccc2c(c1)[C@H](Nc1nc(N)nc(C(C)F)n1)[C@@H](C)C2 (stereo partly drawn) [(A), indaziflam] | 50 | 55 | 60 | 60 | 65 | 65 | 60 | 60 | 75 | – | – | – | – | – | – | – | – | – | 52 | 68 | effect on AMATA resistant - group B (TSR), C1 (TSR) (AMATA; (A) alone, 12.5 g of AS/ha): 70; effect on AMATA sensitive (AMATA; (A) alone, 12.5 g of AS/ha): 70; effect on EPHHL resistant - group B (TSR) (EPHHL [4]; (A) alone, 12.5 g of AS/ha): 0; effect on EPHHL resistant - group B (TSR) and G (NTR) (EPHHL [4]; (A) alone, 12.5 g of AS/ha): 0; effect on EPHHL sensitive (EPHHL [4]; (A) alone, 12.5 g of AS/ha): 50; effect on APESV resistant - group B (TSR, NTR) and K1/3 (NA) (APESV [5]; (A) alone, 12.5 g of AS/ha): 70; effect on APESV sensitive (APESV [5]; (A) alone, 12.5 g of AS/ha): 90; effect on LOLSS resistant - group G (NTR) (LOLSS [6]; (A) alone, 12.5 g of AS/ha): 75; effect on LOLSS resistant group A (TSR, NTR), B (NTR) and C2 (NA) (LOLSS [6]; (A) alone, 12.5 g of AS/ha): 50; effect on LOLSS resistant group A (TSR, NTR), B (TSR, NTR) and C2 (NA) (LOLSS [6]; (A) alone, 12.5 g of AS/ha): 50; effect on LOLSS sensitive (LOLSS [6]; (A) alone, 12.5 g of AS/ha): 80; effect on ERIBO resistant - group B (NA) and G (NTR) (ERIBO; (A) alone, 12.5 g of AS/ha): 60; effect on ERIBO sensitive (ERIBO; (A) alone, 12.5 g of AS/ha): 70
CCS(=O)(=O)c1cccnc1S(=O)(=O)NC(=O)Nc1nc(OC)cc(OC)n1 [(B3), rimsulfuron] | 50 | 60 | 80 | 20 | 100 | 60 | 60 | 15 | 95 | 70 | 0 | 0 | 30 | 35 | 93 | 60 | 50 | 50 | 24 | 75 | effect on LOLSS sensitive (LOLSS [6]; [14]): 70; effect on ERIBO resistant - group B (NA) and G (NTR) (ERIBO; [14]): 0; effect on ERIBO sensitive (ERIBO; [14]): 70
COc1cc(OC)nc(NC(=O)NS(=O)(=O)c2cc(NC=O)ccc2C(=O)N(C)C)n1 [(B2), foramsulfuron] | 40 | 30 | 80 | 0 | 100 | 50 | 60 | 40 | 100 | 60 | 0 | 0 | 30 | 20 | 95 | 65 | 80 | 60 | 22 | 73 | effect on LOLSS sensitive (LOLSS [6]; [14]): 78; effect on ERIBO resistant - group B (NA) and G (NTR) (ERIBO; [14]): 0; effect on ERIBO sensitive (ERIBO; [14]): 100
CCOC(=O)c1ccccc1S(=O)(=O)NC(=O)Nc1nc(Cl)cc(OC)n1 [(B4), chlorimuron-ethyl] | 30 | 30 | 60 | 0 | 100 | 50 | 55 | 0 | 35 | 60 | 0 | 40 | 60 | 40 | 90 | 60 | 55 | 10 | 29 | 82 | effect on AMATA resistant - group B (TSR), C1 (TSR) (AMATA; [14]): 50; effect on LOLSS sensitive (LOLSS [6]; [14]): 70; effect on ERIBO resistant - group B (NA) and G (NTR) (ERIBO; [14]): 0; effect on ERIBO sensitive (ERIBO; [14]): 100
COC(=O)c1csc(C)c1S(=O)(=O)NC(=O)n1nc(OC)n(C)c1=O [(B5), thiencarbazone-methyl] | 30 | 20 | 70 | 0 | 100 | 40 | 50 | 0 | 85 | 60 | 0 | 0 | 30 | 20 | 95 | 70 | 80 | 20 | 22 | 73 | effect on AMATA resistant - group B (TSR), C1 (TSR) (AMATA; [14]): 40; effect on LOLSS sensitive (LOLSS [6]; [14]): 75; effect on ERIBO resistant - group B (NA) and G (NTR) (ERIBO; [14]): 0; effect on ERIBO sensitive (ERIBO; [14]): 60
